According to patent US20240101531A1, “PYRIDINAMINE DERIVATIVES AND THEIR USE AS POTASSIUM CHANNEL MODULATORS” (Xenon Pharmaceuticals Inc., priority 2022, published 2024):
Structures can show the parent of a compound that is named as a salt.

Target: human KV7.2/KV7.3 (Homo sapiens (Human), UniProt O43525+O43526)
Assay: Potassium flux assay (IPG-2 AM dye)
Assay type: cell-based
Details: TREX HEK 293 or HEK 293 cells expressing human KV7.2/KV7.3; arithmetic mean values
Excerpt: This potassium flux assay employs the cell-permeable, potassium-sensitive dye, IPG-2 AM, to quantify potassium ion flux through potassium channels.
In general, TREX HEK 293 or HEK 293 cells were stably transfected with either an inducible or non-inducible expression vector containing the full-length cDNA coding for the desired human KV7.2/KV7.3 or in combination with another full-length cDNA for a second desired human KV7 potassium channel. Potassium channel-expressing cell lines were induced with tetracycline (1 μg/mL), if required, and plated on 384-well poly-D-lysine (PDL)-coated plates in culture media (DMEM, containing 10% FBS and 1% L-glutamine). After overnight incubation, culture media was removed and cells were loaded with 5 μM IPG-2 AM dye for 1 hour in Assay buffer (140 mM NaCl, 20 mM RbCl, 2 mM CaCl2, 1 mM MgCl2, 10 mM HEPES (4-(2-hydroxyethyl)-1-piperazineethanesulfonic acid buffer), 10 mM glucose, adjusted with Tris to pH 7.4). Excess dye was removed, and cells incubated at room temperature for 20 minutes with or without test compound. A Hamamatsu FDSS μCell was used to perform a 1:1 addition of K challenge buffer (150 mM NaCl, 10 mM HEPES, 2 mM CaCl2, 10 mM KCl, 1 mM MgCl2, 10 mM glucose, adjusted with Tris to pH 7.4 for human KV7.2/KV7.3, and simultaneously read plates at excitation wavelength of 530 nm and emission wavelength of 558 nm. Non-potassium channel-mediated potassium influx was determined in the presence of DMSO, and maximal influx was determined in the presence of a known KV7.x channel modulator. For each test compound, a concentration response curve was generated with 16 concentrations points, 2-fold serial dilution starting at 30 μM and an EC50 value was determined.

First: Cc1ncc(Nc2nccc3cc(OCC4(F)COC4)ccc23)cn1 [Example 57, 6-((3-fluorooxetan-3-yl)methoxy)-N-(2-methylpyrimidin-5-yl)isoquinolin-1-amine]
Second: Cc1ncc(Nc2nccc3cc(OCC4(F)CNC4)ccc23)cn1 [Example 58, 6-((3-fluoroazetidin-3-yl)methoxy)-N-(2-methylpyrimidin-5-yl)isoquinolin-1-amine]
The EC50 of the first is lower: 1 to 10 µM for the first, ≥ 30 µM for the second. The first is the more potent here.

First: FC1(COc2ccc3c(Nc4ccc(Cl)nc4)nccc3c2)CNC1 [Example 59, N-(6-chloropyridin-3-yl)-6-((3-fluoroazetidin-3-yl)methoxy)isoquinolin-1-amine hydrochloride]
Second: N#CC1(COc2ccc3c(Nc4ccc(Cl)nc4)nccc3c2)CC1 [Example 80, 1-(((1-((6-chloropyridin-3-yl)amino)isoquinolin-6-yl)oxy)methyl)cyclopropane-1-carbonitrile]
The EC50 of the first is higher: 10 to 30 µM for the first, < 1 µM for the second.

`N#CC1(Oc2ccc3c(Nc4cnc(Cl)nc4)nccc3c2)CC1` [Example 60, 1-((1-((2-chloropyrimidin-5-yl)amino)isoquinolin-6-yl)oxy)cyclopropane-1-carbonitrile] and `NC(=O)C1(Oc2ccc3c(Nc4cnc(Cl)nc4)nccc3c2)CC1` [Example 61, 1-((1-((2-chloropyrimidin-5-yl)amino)isoquinolin-6-yl)oxy)cyclopropane-1-carboxamide] fall in the same range of EC50: 1 to 10 µM for the first, 1 to 10 µM for the second.

First: Cn1nc(COc2ccc3c(Nc4ccc(Cl)nc4)nccc3c2)cc1C#N [Example 62, 3-(((1-((6-chloropyridin-3-yl)amino)isoquinolin-6-yl)oxy)methyl)-1-methyl-1H-pyrazole-5-carbonitrile]
Second: Cn1cncc1COc1ccc2c(Nc3ccc(Cl)nc3)nccc2c1 [Example 65, N-(6-chloropyridin-3-yl)-6-((1-methyl-1H-imidazol-5-yl)methoxy)isoquinolin-1-amine]
The EC50 of the first is higher: 1 to 10 µM for the first, < 1 µM for the second.

`Cc1nnc(COc2ccc3c(Nc4ccc(Cl)nc4)nccc3c2)o1` [Example 63, N-(6-chloropyridin-3-yl)-6-((5-methyl-1,3,4-oxadiazol-2-yl)methoxy)isoquinolin-1-amine] and `Cn1cnnc1COc1ccc2c(Nc3ccc(Cl)nc3)nccc2c1` [Example 87, N-(6-chloropyridin-3-yl)-6-((4-methyl-4H-1,2,4-triazol-3-yl)methoxy)isoquinolin-1-amine] fall in the same range of EC50: 1 to 10 µM for the first, 1 to 10 µM for the second.

`N#C[C@H]1C[C@](F)(COc2ccc3c(Nc4cnc(Cl)nc4)nccc3c2)C1` [Example 64, (1s,3s)-3-(((1-((2-chloropyrimidin-5-yl)amino)isoquinolin-6-yl)oxy)methyl)-3-fluorocyclobutane-1-carbonitrile] and `FC1(COc2ccc3c(Nc4cnc(Cl)nc4)nccc3c2)CC1` [Example 68, N-(2-chloropyrimidin-5-yl)-6-((1-fluorocyclopropyl)methoxy)isoquinolin-1-amine] cannot be ordered by EC50: < 1 µM for the first, < 1 µM for the second.

Compared with `FC(F)COc1ccc2c(Nc3cnc(Cl)nc3)nccc2c1` [Example 66, N-(2-chloropyrimidin-5-yl)-6-(2,2-difluoroethoxy)isoquinolin-1-amine], `Cc1ncc(Nc2nccc3cc(OCC4(C#N)CC4)ccc23)cn1` [Example 88, 1-(((1-((2-methylpyrimidin-5-yl)amino)isoquinolin-6-yl)oxy)methyl)cyclopropane-1-carbonitrile] is higher in EC50: < 1 µM for the first, 1 to 10 µM for the second.

Going from `COc1ccc(Nc2nccc3cc(OCC4(C)COC4)ccc23)cn1` [Example 67, N-(6-methoxypyridin-3-yl)-6-((3-methyloxetan-3-yl)methoxy)isoquinolin-1-amine] to `N#CC1(COc2ccc3c(Nc4ccc(Cl)nc4)nccc3c2)COC1` [Example 85, 3-(((1-((6-chloropyridin-3-yl)amino)isoquinolin-6-yl)oxy)methyl)oxetane-3-carbonitrile], the EC50 falls from ≥ 30 µM to < 1 µM. The second is the more potent here.

First: Oc1ccc2c(Nc3ccc(Cl)nc3)nccc2c1 [Example 69, 1-((6-chloropyridin-3-yl)amino)isoquinolin-6-ol]
Second: O[C@H]1C[C@H](Oc2ccc3c(Nc4ccc(Cl)nc4)nccc3c2)C1 [Example 96, (1r,3r)-3-((1-((6-chloropyridin-3-yl)amino)isoquinolin-6-yl)oxy)cyclobutan-1-ol]
The EC50 of the first is higher: 10 to 30 µM for the first, 1 to 10 µM for the second.

`Clc1ccc(Nc2nccc3cc(OCCN4CC5(CCO5)C4)ccc23)cn1` [Example 70, 6-(2-(1-oxa-6-azaspiro[3.3]heptan-6-yl)ethoxy)-N-(6-chloropyridin-3-yl)isoquinolin-1-amine] and `Clc1ccc(Nc2nccc3cc(OCCN4CC5(CCC5)C4)ccc23)cn1` [Example 71, 6-(2-(2-azaspiro[3.3]heptan-2-yl)ethoxy)-N-(6-chloropyridin-3-yl)isoquinolin-1-amine] fall in the same range of EC50: 10 to 30 µM for the first, 10 to 30 µM for the second.

`COC1CN(CCOc2ccc3c(Nc4ccc(Cl)nc4)nccc3c2)C1` [Example 72, N-(6-chloropyridin-3-yl)-6-(2-(3-methoxyazetidin-1-yl)ethoxy)isoquinolin-1-amine] and `Clc1ccc(Nc2nccc3cc(OCCN4CC5(COC5)C4)ccc23)cn1` [Example 73, 6-(2-(2-oxa-6-azaspiro[3.3]heptan-6-yl)ethoxy)-N-(6-chloropyridin-3-yl)isoquinolin-1-amine] cannot be ordered by EC50: 10 to 30 µM for the first, ≥ 30 µM for the second.

Compared with `Clc1ccc(Nc2nccc3cc(OCCn4ccnc4)ccc23)cn1` [Example 74, 6-(2-(1H-imidazol-1-yl)ethoxy)-N-(6-chloropyridin-3-yl)isoquinolin-1-amine], `Clc1ccc(Nc2nccc3cc(OCn4cccn4)ccc23)cn1` [Example 82, 6-((1H-pyrazol-1-yl)methoxy)-N-(6-chloropyridin-3-yl)isoquinolin-1-amine] is lower in EC50: ≥ 30 µM for the first, 1 to 10 µM for the second. The second is the more potent here.

Compared with `O=c1cc[nH]n1CCOc1ccc2c(Nc3ccc(Cl)nc3)nccc2c1` [Example 75, 2-(2-((1-((6-chloropyridin-3-yl)amino)isoquinolin-6-yl)oxy)ethyl)-1,2-dihydro-3H-pyrazol-3-one], `Clc1ccc(Nc2nccc3cc(OCCC4COC4)ccc23)cn1` [Example 89, N-(6-chloropyridin-3-yl)-6-(2-(oxetan-3-yl)ethoxy)isoquinolin-1-amine] is lower in EC50: 1 to 10 µM for the first, < 1 µM for the second. The second is the more potent here.

First: Clc1ccc(Nc2nccc3cc(OCc4ccccc4)ccc23)cn1 [Example 76, 6-(benzyloxy)-N-(6-chloropyridin-3-yl)isoquinolin-1-amine]
Second: Clc1ccc(Nc2nccc3cc(OC4CCN(Cc5ccccc5)CC4)ccc23)cn1 [Example 90, 6-((1-benzylpiperidin-4-yl)oxy)-N-(6-chloropyridin-3-yl)isoquinolin-1-amine trifluoroacetate]
The EC50 of the first is higher: ≥ 30 µM for the first, 1 to 10 µM for the second. The second is the more potent here.

First: N#CC1(COc2ccc3c(Nc4ccc(Cl)nc4)nccc3c2)CCC1 [Example 77, 1-(((1-((6-chloropyridin-3-yl)amino)isoquinolin-6-yl)oxy)methyl)cyclobutane-1-carbonitrile]
Second: CC(C)(C#N)COc1ccc2c(Nc3ccc(Cl)nc3)nccc2c1 [Example 78, 3-((1-((6-chloropyridin-3-yl)amino)isoquinolin-6-yl)oxy)-2,2-dimethylpropanenitrile]
The EC50 of the first is lower: < 1 µM for the first, 1 to 10 µM for the second.

`Clc1ccc(Nc2nccc3cc(OCC4CC5(COC5)C4)ccc23)cn1` [Example 81, 6-((2-oxaspiro[3.3]heptan-6-yl)methoxy)-N-(6-chloropyridin-3-yl)isoquinolin-1-amine] and `FC1(F)COCC1Oc1ccc2c(Nc3ccc(Cl)nc3)nccc2c1` (centres unmarked) [Example 86, N-(6-chloropyridin-3-yl)-6-((4,4-difluorotetrahydrofuran-3-yl)oxy)isoquinolin-1-amine 2,2,2-trifluoroacetate] fall in the same range of EC50: 1 to 10 µM for the first, 1 to 10 µM for the second.

First: FC1(F)CCCC(Oc2ccc3c(Nc4ccc(Cl)nc4)nccc3c2)C1 (centres unmarked) [Example 83, N-(6-chloropyridin-3-yl)-6-((3,3-difluorocyclohexyl)oxy)isoquinolin-1-amine]
Second: FC1(F)CCC(Oc2ccc3c(Nc4ccc(Cl)nc4)nccc3c2)CC1 [Example 93, N-(6-chloropyridin-3-yl)-6-((4,4-difluorocyclohexyl)oxy)isoquinolin-1-amine]
The EC50 of the first is higher: 1 to 10 µM for the first, < 1 µM for the second.

`Clc1ccc(Nc2nccc3cc(OCc4cnn5c4OCCC5)ccc23)cn1` [Example 84, N-(6-chloropyridin-3-yl)-6-((6,7-dihydro-5H-pyrazolo[5,1-b][1,3]oxazin-3-yl)methoxy)isoquinolin-1-amine] and `Clc1ccc(Nc2nccc3cc(OCc4cnccn4)ccc23)cn1` [Example 94, N-(6-chloropyridin-3-yl)-6-(pyrazin-2-ylmethoxy)isoquinolin-1-amine] fall in the same range of EC50: 10 to 30 µM for the first, 10 to 30 µM for the second.

First: CC(Oc1ccc2c(Nc3ccc(Cl)nc3)nccc2c1)C1(F)CC1 (centres unmarked) [Example 91, N-(6-chloropyridin-3-yl)-6-(1-(1-fluorocyclopropyl)ethoxy)isoquinolin-1-amine]
Second: C[Si](C)(C)CCOCN(c1ccc(Cl)nc1)c1nccc2cc(F)ccc12 [Example 92, N-(6-chloropyridin-3-yl)-6-fluoro-N-((2-(trimethylsilyl)ethoxy)-methyl)isoquinolin-1-amine]
The EC50 of the first is lower: < 1 µM for the first, 1 to 10 µM for the second. The first is the more potent here.
